Converted amounts (≈) assume the structure as drawn. “And” between values parts separate entries of the source, which are not always exact repeats. Equal values may be shown once. Read-outs that look alike come from different tables or passages of the source.
Assays:
Escherichia coli LeuRS = conditions: read-out: IC50 (E. coli LeuRS); binds to the editing site; cited from earlier work
Gram-negative pathogens = conditions: cited from earlier work
[1] = test system: Mycobacterium tuberculosis; conditions: M. tuberculosis; cited from earlier work
M. tuberculosis LeuRS = conditions: read-out: M. tuberculosis LeuRS IC50; cited from earlier work
[2] = Cytotoxicity, MTT cell viability assay; type: cell-based; conditions: monkey, vero cells
saLeuRS = conditions: read-out: IC50 (LeuRS); previously reported; ref 25 (Xia et al.); cited from earlier work
[3] = test system: MRSA (ATCC BAA-1762) resistant mutants; conditions: for MIC shift: vs wild-type MRSA
MRSA (ATCC BAA-1762) [4] = assay: Post-antibiotic effect; conditions: 1 h exposure
S. aureus = conditions: previously reported; cited from earlier work
[5] = test system: MRSA (ATCC BAA-1762) resistant mutants; assay: microbe, parasite or virus in culture; conditions: Staphylococcus aureus, ATCCBAA1762|MRSA, read-out: MIC of resistant colonies
MRSA (ATCC BAA-1762) [6] = assay: Time-kill experiments
[7] = target: T1, S. aureus LeuRS (saLeuRS) (Staphylococcus aureus, UniProt Q2FXH2); assay: radiolabeled LeuRS aminoacylation assay; type: biochemical
T1 sequence (Q2FXH2 1-805): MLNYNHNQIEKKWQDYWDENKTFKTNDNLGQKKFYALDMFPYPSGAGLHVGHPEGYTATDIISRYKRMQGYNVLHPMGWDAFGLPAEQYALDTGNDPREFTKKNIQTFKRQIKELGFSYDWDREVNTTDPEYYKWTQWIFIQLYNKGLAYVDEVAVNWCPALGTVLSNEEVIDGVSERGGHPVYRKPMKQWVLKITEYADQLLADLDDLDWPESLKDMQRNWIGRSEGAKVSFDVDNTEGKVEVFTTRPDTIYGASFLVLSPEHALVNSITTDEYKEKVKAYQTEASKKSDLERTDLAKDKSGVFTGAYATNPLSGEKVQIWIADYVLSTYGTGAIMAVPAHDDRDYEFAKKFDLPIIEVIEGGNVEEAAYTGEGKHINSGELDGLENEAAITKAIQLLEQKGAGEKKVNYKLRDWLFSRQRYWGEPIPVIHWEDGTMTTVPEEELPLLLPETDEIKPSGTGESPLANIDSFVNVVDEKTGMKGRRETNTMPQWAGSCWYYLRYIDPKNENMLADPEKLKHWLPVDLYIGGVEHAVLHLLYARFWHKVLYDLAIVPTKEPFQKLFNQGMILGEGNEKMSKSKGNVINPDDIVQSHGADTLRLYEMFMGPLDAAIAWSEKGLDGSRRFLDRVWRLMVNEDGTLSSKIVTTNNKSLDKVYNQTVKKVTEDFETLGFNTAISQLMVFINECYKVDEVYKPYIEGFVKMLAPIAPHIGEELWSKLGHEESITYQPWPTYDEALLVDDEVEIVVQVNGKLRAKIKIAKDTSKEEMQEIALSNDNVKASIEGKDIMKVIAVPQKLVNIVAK

Vero cells = assay: Cytotoxicity, MTT cell viability assay; type: cell-based; conditions: Vero cells, 24 h, MTT
MRSA ATCC BAA-1762 = assay: MIC by broth microdilution; type: cell-based, Staphylococcus aureus

In the case of `NC[C@H]1OB(O)c2c(OCCCO)cccc21` [AN3365], the IC50 (Escherichia coli LeuRS) is given as 0.31 µM and the MIC (Gram-negative pathogens) is given as 0.5 to 4 µg/mL.

In the case of `CCOc1ccc(Cl)c2c1B(O)OC2CN` (centres unmarked) [AN6426], the MIC [1] is listed as 0.13 µM (≈ 0.0314 µg/mL) and the IC50 (M. tuberculosis LeuRS) is listed as 0.09 µM.

In the case of `O=[N+]([O-])c1ccc(S(=O)(=O)Nc2ccc3c(c2)B(O)OC3)cc1` [PT638], the CC50 at 24 h [2] is given as no less than 100 µg/mL, the IC50 (saLeuRS) is given as greater than 200 µM and the MIC shift ([3]; mutant strain 1, D343Y saLeuRS) is given as 16-fold. The MIC shift ([3]; mutant strain 2, G303S saLeuRS) was 8-fold, the MIC shift ([3]; mutant strain 3, F233I saLeuRS) was 8-fold and the “MIC of resistant colonies relative to parent strain” value ([3]; three colonies picked) was “at least 8 times”. For the same compound, the “duration of the post-antibiotic effect” value (MRSA (ATCC BAA-1762) [4]; 0.25 × MIC) was 0.2 h, the “duration of the post-antibiotic effect” value (MRSA (ATCC BAA-1762) [4]; 4 × MIC) was 1.5 h and the “MIC against S. aureus” value (S. aureus) was less than 0.2 µg/mL. The MIC [5] was no less than 3.12 µg/mL, the “reduction in cell numbers over 8 h” value (MRSA (ATCC BAA-1762) [6]; 1 times the MIC) was 1.8 log10 cfu/mL and the “reduction in cell numbers over 8 h” value (MRSA (ATCC BAA-1762) [6]; 4 times the MIC) was 2.2 log10 cfu/mL. For the same compound, the “reduction in cell numbers over 8 h” value (MRSA (ATCC BAA-1762) [6]; 16 times the MIC) was 2.7 log10 cfu/mL, the “type of antibacterial activity in time-kill” value (MRSA (ATCC BAA-1762) [6]; over the course of 8 h) was “bacteriostatic” and the IC50 [7] was greater than 100 µM. For the same compound, the “IC50 (saLeuRS aminoacylation)” value ([7]; 7 nM saLeuRS, 20 min pre-incubation, triplicate) was “did not inhibit saLeuRS”.

For `Nc1ccc(S(=O)(=O)Nc2ccc3c(c2)B(O)OC3)cc1` [PT662], the “Cytotoxicity Vero cells (IC50)” value (Vero cells) was no less than 100 µg/mL, the “fold increase in MIC relative to PT638” value (MRSA ATCC BAA-1762; MRSA ATCC BAA-1762) was 8 fold and the “MIC MRSA” value (MRSA ATCC BAA-1762; MRSA ATCC BAA-1762, broth microdilution) was 3.1 µg/mL and 3.125 µg/mL.
